This note sets out measurements from patent publication US9789114B2, “Compounds as HIF-1α inhibitors and manufacturing process thereof” (DONGGUK UNIVERSITY INDUSTRY-ACADEMIC COOPERATION FOUNDATION, priority 2011, dated 2017).

Structures are written as SMILES.

This experiment relates to HIF-1α-mediated HRE transcriptional activity. Briefly: Assay for inhibition of HIF-1α-mediated transcriptional activity (HRE reporter assay). The experiment is classed as cell-based, human. The note with it: Homo sapiens, HCT-116, HCT116 cells, 12 hours under hypoxia (1% O2), read-out: Inhibitory activity against HIF-1α (10 μM). The protocol:
<Experiment 1> Assay for Inhibition of HIF-1α-Mediated Transcriptional Activity (HRE Reporter Assay)
The compounds can be developed as anti-cancer drugs, because the compounds inhibiting HIF-1α-mediated HRE transcriptional activity induced by hypoxia can suppress the growth and metastasis of cancer.
Inhibitory effects of the compounds according to the present invention, from Formula I-1 to I-42, on HIF-1α-mediated transcriptional activity were evaluated using this assay. pGL3-HRE-luciferase vector was constructed as follows. Six copies of HRE (Hypoxia Responsive Element, 5′-ACGTG-3′) from human VEGF genes were inserted into the multi-cloning site of a pGL3-basic vector (Promega). A luciferase gene was used as a reporter gene.
In detail, HCT116(ATCC #CCL-247) human colon cancer cells were seeded in 48-well cell culture plates. The cells were co-transfected with 25 ng of pGL3-HRE-luciferase and 2.5 ng of Renila control vectors using Polyfect reagent next day. After 24 hours of incubation, the cells were incubated for an additional 4 hours with replaced cell culture media. The cells were treated with various concentrations (0, 1, 3, 5, 10, and 20 μM) of the above compounds according to the present invention and incubated for 12 hours under hypoxia (1% O2, 94% N2, and 5% CO2). The luciferase assay was performed using a dual-luciferase reporter assay system (Promega). After cell lysate preparation with RIPA buffer, induced luciferase activity under hypoxic conditions was determined to examine inhibitory effects of the compounds according to the present invention, from Formula I-1 to I-42, on HIF-1α-mediated transcriptional activity.
In general terms: Reporter assays use an easily measured gene product as a stand-in for the process of interest.

As to `CN(C)CCNC(=O)CCOc1ccc(C23CC4CC(CC(C4)C2)C3)cc1` [Compound I-10, 3-(4-(Adamantan-1-yl)phenoxy)-N-(2-(dimethylamino)ethyl)propanamide], the inhibition at 10 µM fell in the range of 26 to 50%.

`C[C@H]1CN(C(=O)OC(C)(C)C)CCN1C(=O)COc1ccc(C23CC4CC(CC(C4)C2)C3)cc1` [Compound I-31, (S)-tert-Butyl 4-(2-(4-(adamantan-1-yl)phenoxy)acetyl)-3-methylpiperazine-1-carboxylate]: the inhibition at 10 µM lay within 76 to 100%.

In the case of `CN1CCN(C(=O)COc2ccc(C34CC5CC(CC(C5)C3)C4)cc2Cl)CC1` [Compound I-42, 2-(4-(Adamantan-1-yl)-2-chlorophenoxy)-1-(4-methylpiperazin-1-yl)ethanone], the inhibition at 10 µM lay in the range of 51 to 75%.

Take `O=C(COc1ccc(C23CC4CC(CC(C4)C2)C3)cc1)N1CCN(Cc2ccc(C(F)(F)F)cc2)CC1` [Compound I-27, 2-(4-(Adamantan-1-yl)phenoxy)-1-(4-(4-(trifluoromethyl)benzyl)piperazin-1-yl)ethanone]: the inhibition at 10 µM lay in the range of 76 to 100%.

As for `Cc1cc(C23CC4CC(CC(C4)C2)C3)ccc1OCC(=O)N1CCN(C)CC1` [Compound I-5, 2-(4-(Adamantan-1-yl)-2-methylphenoxy)-1-(4-methylpiperazin-1-yl)ethanone], the inhibition at 10 µM lay in the range of 76 to 100%.

For `O=C(CCOc1ccc(C23CC4CC(CC(C4)C2)C3)cc1)N1CCOCC1` [Compound I-9, 3-(4-(Adamantan-1-yl)phenoxy)-1-morpholinopropan-1-one], the inhibition at 10 µM is 76 to 100%.

In the case of `CN1CCN(C(=O)CCCOc2ccc(C34CC5CC(CC(C5)C3)C4)cc2)CC1` [Compound I-14, 4-(4-(Adamantan-1-yl)phenoxy)-1-(4-methylpiperazin-1-yl)butan-1-one], the inhibition at 10 µM was 51 to 75%.

On to `C[C@H]1CNCCN1C(=O)COc1ccc(C23CC4CC(CC(C4)C2)C3)cc1` [Compound I-32, 2-(4-(Adamantan-1-yl)phenoxy)-1-((S)-2-methylpiperazin-1-yl)ethanone], for which the inhibition at 10 µM is 76 to 100%.

As for `O=C(COc1ccc(C23CC4CC(CC(C4)C2)C3)cc1)Nc1ccc(N2CCS(=O)(=O)CC2)cc1` [Compound I-38, 2-(4-(Adamantan-1-yl)phenoxy)-N-(4-(1,1-dioxidothiomorpholino)phenyl)acetamide], the inhibition at 10 µM was in the range of 51 to 75%.

Consider `Cc1cc(C23CC4CC(CC(C4)C2)C3)ccc1OCC(=O)NCCN(C)C` [Compound I-7, 2-(4-(Adamantan-1-yl)-2-methylphenoxy)-N-(2-(dimethylamino)ethyl)acetamide], for which the inhibition at 10 µM lay in the range of 51 to 75%.

`O=C(COc1ccc(C23CC4CC(CC(C4)C2)C3)cc1)N1CCNCC1` [Compound I-30, 2-(4-(Adamantan-1-yl)phenoxy)-1-(piperazin-1-yl)ethanone]: the inhibition at 10 µM fell in the range of 76 to 100%.

Turning to `C[N+]1(C)CCN(C(=O)CCOc2ccc(C34CC5CC(CC(C5)C3)C4)cc2)CC1` [Compound I-18, 4-(3-(4-(Adamantan-1-yl)phenoxy)propanoyl)-1,1-dimethylpiperazin-1-ium iodide], the inhibition at 10 µM was in the range of 26 to 50%.

With `CC(C)N1CCN(C(=O)COc2ccc(C34CC5CC(CC(C5)C3)C4)cc2)CC1` [Compound I-28, 2-(4-(Adamantan-1-yl)phenoxy)-1-(4-isopropylpiperazin-1-yl)ethanone], the inhibition at 10 µM fell in the range of 51 to 75%.

As to `CN1CCN(C(=O)COc2ccc(C34CC5CC(CC(C5)C3)C4)cc2F)CC1` [Compound I-25, 2-(4-(Adamantan-1-yl)-2-fluorophenoxy)-1-(4-methylpiperazin-1-yl)ethanone], the inhibition at 10 µM lay in the range of 51 to 75%.

Take `O=C(COc1ccc(C23CC4CC(CC(C4)C2)C3)cc1)N1CCN(CCO)CC1` [Compound I-35, 2-(4-(Adamantan-1-yl)phenoxy)-1-(4-(2-hydroxyethyl)piperazin-1-yl)ethanone]: the inhibition at 10 µM was in the range of 26 to 50%.

As for `Cc1cc(C23CC4CC(CC(C4)C2)C3)ccc1OCCC(=O)N1CCN(C)CC1` [Compound I-11, 3-(4-(Adamantan-1-yl)-2-methylphenoxy)-1-(4-methylpiperazin-1-yl)propan-1-one], the inhibition at 10 µM was 76 to 100%.
